According to PMC10539733, “Fluorine NMR study of proline-rich sequences using fluoroprolines” (Magnetic resonance, 2021):
Where “and” joins values, the source holds several entries; their conditions need not be identical. Equal entries are not always repeated. Where two headings read alike, the source gives them in different places. One block for each molecule: values may come before it. Square brackets hold non-standard residues; d marks the D form. Ends that are not written are not given here. Peptide text beside a SMILES is read from it. Pro(trans-4-F) = O=C(O)[C@@H]1C[C@@H](F)CN1; Pro(cis-4-F) = O=C(O)[C@@H]1C[C@H](F)CN1

Columns and labels:
Vinexin β SH3.3 domain [1] = biological target: T1, Vinexin β SH3.3 domain (Homo sapiens, UniProt O60504); assay: 19F line width (apparent transverse relaxation) analysis of binding kinetics during titration; conditions: fast exchange approximation, 298 K
T1 construct: The Vinexin β SH3.3 was obtained using recombinant expression of a glutathione-S-transferase (GST) fusion protein; GST (N, cleaved yes); made in house; host or cells: Escherichia coli (pGEX plasmids)
T1 sequence (O60504 612-671 limits assumed): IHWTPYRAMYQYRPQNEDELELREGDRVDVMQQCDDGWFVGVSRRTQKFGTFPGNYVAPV
Description: The exchange line broadening during the titration experiment also reports on the binding kinetics. Thus, the major ^19 F peaks were fitted using a Lorentzian line shape and the line widths obtained in this way provide an estimate of the apparent transverse relaxation constant R2‡ as a function of peptide concentration (Fig. 7b and c), which can be used to derive the binding kinetics. […]
Processing of 1D ^19 F spectra and quantification were performed using an open-source Python package dedicated to Fourier spectroscopies called “Spectrometry Processing Innovative Kernel” (SPIKE) (Chiron et al., 2016). […] Line fitting was done using the least-square minimizer of the Scipy optimize toolbox to find the optimal set of the signal parameters minimizing the squared differences between the experimental and calculated spectra. […]
Titrations were performed by successive addition of stock peptide solutions to a sample of SH3 protein at 314 µM in a 3 mm NMR tube. […] For every titration point, a 1D ^19 F spectrum and a ^1 H– ^15 N HSQC were recorded at 298K on the same spectrometer, taking advantage of the QCI-F probe. The ^1 H– ^15 N HSQC was recorded using the standard pulse sequence and a 3-9-19 WATERGATE water suppression element. The 200 points were recorded in the indirect dimension to achieve a final resolution of 7.0 and 18.8 Hz per point in the acquisition and indirect dimensions, respectively. […]

Vinexin β SH3.3 domain [2] = biological target: T1, Vinexin β SH3.3 domain; assay: NMR titration, 1H-15N HSQC chemical shift perturbations of 15N-labelled SH3 domain; assay type: binding
Description: In order to measure the binding affinities between the Vinexin β SH3.3 domain and the model peptides, a titration experiment was performed where increasing amounts of peptide were added to a solution of ^15 N-labelled SH3 domain. Apart from MpRS and MpSR peptides, a titration was also performed with a non-fluorinated reference peptide. Just as for most SH3–PRM interaction studies, a gradual frequency shift of a subset of ^1 H– ^15 N correlation peaks in the ^1 H– ^15 N HSQC spectra was observed, indicative of fast exchange between bound and free states of the protein (Fig. 6a). Under this exchange regime, the chemical shifts provide an accurate measure of the bound protein fraction, enabling the determination of an equilibrium dissociation constant Kd (vide infra).
The MpRS and MpSR peptides were produced by solid-phase synthesis using fluorenylmethyloxycarbonyl (Fmoc) amino acids using a model 431A peptide synthesizer from Applied Biosystems (Foster City, CA, USA). Fmoc-protected (4 R )- and (4 S )-FPro amino acids were purchased from Bachem SA. Peptides were purified by reversed-phase HPLC and checked by electrospray ionization and time of flight mass spectrometry (ESI-TOF). The Vinexin β SH3.3 was obtained using recombinant expression of a glutathione-S-transferase (GST) fusion protein in Escherichia coli using pGEX plasmids (Lalevée et al., 2010). After thrombin cleavage, the protein was purified using size-exclusion chromatography and eluted with phosphate buffer (40 mM phosphate, NaCl 100 mM, DTT 2 mM, pH 7). Before titration experiments, a dialysis was performed using 1 and 3 kDa cut-off membrane for the peptide and the protein, respectively, and a common dialysis bath containing the buffer used in interaction experiments. Protein concentrations were determined by measuring the optical density (OD) at 280 nm (molar absorption coefficient 11 460 M ^-1 cm ^-1 ). Peptide concentrations were measured by ^1 H NMR by comparing the integrals of peptide resonances with those of tryptophan of known concentration in a sample containing small amounts (10–30 µM ) of both compounds in D 2 O as described (Kohler et al., 2015). For assignments, lyophilized powder of MpRS and MpSR peptides were dissolved in 170 µL of D 2 O for a final concentration of 1 mM in 3 mm tubes.
Titrations were performed by successive addition of stock peptide solutions to a sample of SH3 protein at 314 µM in a 3 mm NMR tube. In order to reduce the dilution of the initial protein solution and keep the aliquot volumes within values compatible with low pipetting errors (1 to 3 µL ), initial aliquots were added using stock solutions diluted by a factor of 2. The concentrations of the stock solutions were 5.1 and 5.7 mM for MpSR and MpRS, respectively. For every titration point, a 1D ^19 F spectrum and a ^1 H– ^15 N HSQC were recorded at 298K on the same spectrometer, taking advantage of the QCI-F probe. The ^1 H– ^15 N HSQC was recorded using the standard pulse sequence and a 3-9-19 WATERGATE water suppression element. The 200 points were recorded in the indirect dimension to achieve a final resolution of 7.0 and 18.8 Hz per point in the acquisition and indirect dimensions, respectively. The relaxation delay was set to 1 s resulting in a total acquisition time of 16 min. The 1D ^19 F spectra were recorded with a spectral width of 22.522 kHz. The number of scans was adapted to achieve a sufficient signal-to-noise ratio for each concentration of peptide. For the first titration point, at a peptide concentration of 50 µM , 1600 scans were recorded for a total acquisition time of 1 h and 6 min, while 250 scans (10 min acquisition time) were used for the large peptide concentrations.
The composite chemical shift was calculated using […], where ΔδN and ΔδH are the ^15 N and proton chemical shift differences measured between the free protein and the protein in the presence of a given amount of peptide. […]

[3] = biological target: T2, Vinexin β SH3.3 domain (third SH3 domain of the Vinexin β protein) (UniProt O60504 612-671); assay: NMR titration; peptide stock added stepwise to 15N-labelled SH3 at 314 µM in a 3 mm tube, 298 K; 19F shifts of the peptide and 1H/15N shifts of the SH3 fitted simultaneously; 1:1 and 1:2 models compared; conditions: both partners purified
T2 construct: Vinexin β, third SH3 domain (SH3.3); 15N-labelled for the titrations; source: E. coli, GST fusion protein (pGEX plasmids), thrombin cleavage, purified (size-exclusion chromatography)
T2 sequence (looked up): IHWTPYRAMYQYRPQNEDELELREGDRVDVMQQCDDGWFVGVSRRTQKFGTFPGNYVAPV

[4] = biological target: T2, Vinexin β SH3.3 domain (third SH3 …); assay: NMR titration; 19F line widths (apparent R2) of the peptide against peptide concentration during the titration, fast-exchange approximation; kon fitted independently for each 19F signal, Kd taken from the shift fit; conditions: both partners purified
[5] = biological target: T2, Vinexin β SH3.3 domain (third SH3 …); assay: NMR titration; same kind of titration, 298 K; only the 1H-15N chemical shift perturbations of the SH3 domain fitted, 1:1 model; conditions: both partners purified

Molecule: CC(C)[C@H](NC(=O)[C@H](CCCNC(=N)N)NC(=O)[C@@H]1CCCN1C(=O)[C@@H]1CCCN1C(=O)[C@@H]1CCCN1C(=O)[C@@H]1C[C@@H](F)CN1C(=O)[C@@H]1CCCN1C(=O)[C@H](CO)NC(=O)[C@@H]1CCCN1C(=O)[C@@H]1C[C@H](F)CN1C(=O)[C@@H]1CCCN1C(=O)[C@@H]1CCCN1C(=O)[C@@H]1CCCN1)C(=O)N[C@@H](Cc1ccc(O)cc1)C(=O)N[C@@H](CCCCN)C(=O)O [MpSR] (H-PPP[Pro(cis-4-F)]PSP[Pro(trans-4-F)]PPPRVYK-OH)
kon (Vinexin β SH3.3 domain [1]; from 19F line widths of (4 R )-FPro8 signal, read-out: association kinetics constant kon, (4 R )-FPro8 signal): 1.2e+08 M⁻¹ s⁻¹
kon (Vinexin β SH3.3 domain [1]; from 19F line widths of (4 S )-FPro4 signal, read-out: association kinetics constant kon, (4 S )-FPro4 signal): 9e+07 M⁻¹ s⁻¹

B1: MpSR peptide (peptide)
peptide: PPP[Pro(cis-4-F)]PSP[Pro(trans-4-F)]PPPRVYK
notes: P at 4 and 8 stand for fluoroprolines; Two segments of five prolines separated by one serine, followed by RVYK; source: synthetic peptide (Fmoc solid-phase synthesis, reversed-phase HPLC)
Kd [3]: 96 ± 30 µM
stoichiometry N [3]: 1
kon [4]: 9e+07 M⁻¹ s⁻¹ and 1.2e+08 M⁻¹ s⁻¹
Kd [5]: 75 µM

B2: MpRS peptide (peptide)
peptide: PPP[Pro(trans-4-F)]PSP[Pro(cis-4-F)]PPPRVYK
notes: P at 4 and 8 stand for fluoroprolines; source: synthetic peptide (Fmoc solid-phase synthesis, reversed-phase HPLC)
Kd [3]: 273 ± 30 µM
stoichiometry N [3]: 1
Kd [5]: 220 µM

Other lines, results leading:

1H-15N composite chemical shift perturbation, Asn 15 (Vinexin β SH3.3 domain [2]; Vinexin β residue Asn 15): 1.093
1H-15N composite chemical shift perturbation, Asp 17 (Vinexin β SH3.3 domain [2]; Vinexin β residue Asp 17): 2.276
1H-15N composite chemical shift perturbation, Gln 14 (Vinexin β SH3.3 domain [2]; Vinexin β residue Gln 14): 1.949
1H-15N composite chemical shift perturbation, Gly 49 (Vinexin β SH3.3 domain [2]; Vinexin β residue Gly 49): 0.812
1H-15N composite chemical shift perturbation, Leu 21 (Vinexin β SH3.3 domain [2]; Vinexin β residue Leu 21): 0.988
1H-15N composite chemical shift perturbation, Thr 50 (Vinexin β SH3.3 domain [2]; Vinexin β residue Thr 50): 1.881
1H-15N composite chemical shift perturbation, Trp 37 (Vinexin β SH3.3 domain [2]; Vinexin β residue Trp 37): 2.011
1H-15N composite chemical shift perturbation, Val 39 (Vinexin β SH3.3 domain [2]; Vinexin β residue Val 39): 3.214
1H-15N composite chemical shift perturbation, Val 56 (Vinexin β SH3.3 domain [2]; Vinexin β residue Val 56): 1.319
Molecule: CC(C)[C@H](NC(=O)[C@H](CCCNC(=N)N)NC(=O)[C@@H]1CCCN1C(=O)[C@@H]1CCCN1C(=O)[C@@H]1CCCN1C(=O)[C@@H]1CCCN1C(=O)[C@@H]1CCCN1C(=O)[C@H](CO)NC(=O)[C@@H]1CCCN1C(=O)[C@@H]1CCCN1C(=O)[C@@H]1CCCN1C(=O)[C@@H]1CCCN1C(=O)[C@@H]1CCCN1)C(=O)N[C@@H](Cc1ccc(O)cc1)C(=O)N[C@@H](CCCCN)C(=O)O [non-fluorinated peptide] (H-PPPPPSPPPPPRVYK-OH; N-terminus and C-terminus assumed)

Kd [5]: 74 ± 25 µM
B3: non-fluorinated reference peptide (peptide)
chain: PPPPPSPPPPPRVYK
modifications: Synthetic RAR-gamma-based peptide. Sequence converted from the three-letter residue list in Table 1 (Pro1-5, Ser6, Pro7-11, Arg12-Val13-Tyr14-Lys15), with plain proline at positions 4 and 8. The …
